Laboratory results published in patent publication US9796733B2, “Imidazo-pyrazine derivatives useful as soluble guanylate cyclase activators” (Merck Sharp & Dohme Corp., priority 2014, dated 2017).

Target: T1, sGC α1/β1 heterodimer (Homo sapiens, UniProt Q02108+Q02153)
T1 construct: expressed in transfected cells; host or cells: CHO-K1 (clone #7, CHO-K1/sGC)
T1 sequence (Q02108 1-690): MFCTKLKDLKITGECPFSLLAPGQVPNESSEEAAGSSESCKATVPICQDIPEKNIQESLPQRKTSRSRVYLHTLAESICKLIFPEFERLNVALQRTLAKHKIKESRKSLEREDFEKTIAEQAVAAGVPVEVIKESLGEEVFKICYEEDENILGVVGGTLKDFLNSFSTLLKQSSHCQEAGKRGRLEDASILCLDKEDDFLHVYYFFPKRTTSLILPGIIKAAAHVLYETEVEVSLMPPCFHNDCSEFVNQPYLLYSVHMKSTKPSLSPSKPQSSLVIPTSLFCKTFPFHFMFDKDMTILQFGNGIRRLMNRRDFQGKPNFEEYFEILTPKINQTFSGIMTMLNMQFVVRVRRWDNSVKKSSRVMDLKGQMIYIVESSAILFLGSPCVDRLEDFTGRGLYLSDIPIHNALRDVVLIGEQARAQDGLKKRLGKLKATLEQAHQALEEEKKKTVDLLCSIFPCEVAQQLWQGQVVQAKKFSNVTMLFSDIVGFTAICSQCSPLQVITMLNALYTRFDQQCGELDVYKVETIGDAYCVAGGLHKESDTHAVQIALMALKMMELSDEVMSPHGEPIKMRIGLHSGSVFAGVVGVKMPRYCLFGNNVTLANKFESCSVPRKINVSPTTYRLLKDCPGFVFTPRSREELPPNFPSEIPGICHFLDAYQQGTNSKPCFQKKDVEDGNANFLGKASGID
T1 sequence (Q02153 1-619): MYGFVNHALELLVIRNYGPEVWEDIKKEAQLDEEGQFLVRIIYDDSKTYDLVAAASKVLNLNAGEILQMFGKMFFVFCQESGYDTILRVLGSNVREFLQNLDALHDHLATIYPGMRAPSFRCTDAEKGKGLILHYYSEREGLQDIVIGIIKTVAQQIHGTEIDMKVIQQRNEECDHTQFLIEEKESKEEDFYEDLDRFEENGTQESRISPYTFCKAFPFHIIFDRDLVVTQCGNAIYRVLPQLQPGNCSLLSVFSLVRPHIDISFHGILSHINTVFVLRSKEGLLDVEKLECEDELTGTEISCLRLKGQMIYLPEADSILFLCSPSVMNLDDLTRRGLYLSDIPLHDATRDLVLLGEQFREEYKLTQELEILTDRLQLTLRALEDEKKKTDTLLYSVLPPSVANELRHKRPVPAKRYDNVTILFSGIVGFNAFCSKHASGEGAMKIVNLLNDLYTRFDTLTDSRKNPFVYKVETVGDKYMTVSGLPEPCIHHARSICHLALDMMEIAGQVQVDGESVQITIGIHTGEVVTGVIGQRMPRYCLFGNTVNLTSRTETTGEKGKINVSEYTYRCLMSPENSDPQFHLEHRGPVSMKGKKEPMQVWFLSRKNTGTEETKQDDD
Assay: Cell-based sGC functional assay (CASA assay): cGMP generation in CHO-K1/sGC cells, HTRF detection
Settings: for Emax: CHO-K1, percent activation relative to standard Compound A in CHO-K1/sGC cells, read-out: % Act.; for EC50: inflection point (IP) of cGMP generation in CHO-K1/sGC cells, 4P fit, activity expressed as percentage of Compound A
Excerpt: Biological Assay 1: Cell-Based sGC Functional Assay (CASA Assay)
sGC is a heme-containing enzyme that converts GTP to secondary messenger cGMP. Increases in cGMP levels affect several physiological processes including vasorelaxation through multiple downstream pathways. […] Heme-dependent activators (HDAs) preferentially activate sGC containing a ferrous heme group. To determine the effect of sGC activators on enzyme activity, the CASA assay was developed to monitor the generation of cGMP in a cell line that stably expresses the heterodimeric sGC protein.
A CHO-K1 cell line stably expressing the sGC α1/β1 heterodimer was generated using a standard transfection protocol. CHO-K1 cells were transfected with plasmids pIREShyghsGCal and pIRESneo-hsGCβ1 simultaneously using FUGENE reagent. Clones that stably express both subunits were selected with hygromycin and neomycin for 2 weeks. Clone #7 was chosen for the assay and was designated CHO-K1/sGC. CHO-K1/sGC cells were maintained in F-K12 medium containing 10% heat-inactivated Fetal Bovine Serum (FBS), 100 μg/mL penicillin/streptomycin, 0.5 mg/mL hygromycin and 0.25 mg/mL G418. The cells were then cryopreserved in LN2. On the day of the assay, cells thawed and resuspended in EBSS Assay Buffer (Sigma, E3024) supplemented with 5 mM MgCl2, 10 mM HEPES (4-(2-hydroxyethyl)piperazine-1-ethanesulfonic acid) and 0.05% BSA (bovine serum albumin) (EAB) and cell density was then adjusted to 4×10^5/mL with EAR IBMX (3-isobutyl-1-methylxanthin, 0.5 mM) was added to inhibit degradation of cGMP. Compounds were diluted from DMSO stock solutions and added to the assay at a final DMSO concentration of 2.5%. Cells were incubated with compounds in the presence and absence of 1 μM of Diethylenetriamine/nitric oxide adduct (DETA-NO; Sigma, 17018) for 1 hr at 37° C. At the end of the incubation period, the reaction was terminated and the cells were lysed with the detection reagents from Cisbio Kits. The level of intracellular cGMP was determined using an HTRF-based assay kit (CisBio, 62GM2PEC), which detects the displacement of a fluorescence labeled cGMP from its specific antibody. The cGMP produced by test compounds was directly compared to the maximum cGMP production (this value was set to equal 100% activation.) of the published sGC-HDA Compound A:
[drawing 597] (Example 1 in WO 2010/065275, published Jun. 10, 2010). The test compounds' activities were then expressed as a percentage of Compound A, the standard in every experiment. This percent activation was calculated either in the presence or absence of DETA-NO which was then plotted. IP and maximum fold induction was derived using ADA analysis software for 4P fit.
The compounds in the Examples of the instant invention had inflection points (IP) less than or equal to 10 μM and more particularly less than or equal to about 1 μM.

Row | Emax | EC50 | % Act. (percent activation relative to standard Compound A in CHO-K1/sGC cells) | Structure (SMILES)
1 | 239% | 105 nM |  | Nc1nc(-c2cn3ccnc3c(CCC(F)(F)C(F)(F)F)n2)nc2c1C(c1ccc(Cl)cc1)(C1CCC1)C(=O)N2 (single isomer, unassigned) [Example 350B, 4-amino-5-(4-chlorophenyl)-5-cyclobutyl-2-(8-(3,3,4,4,4-pentafluorobutyl)imidazo[1,2-a]pyrazin-6-yl)-5H-pyrrolo[2,3-d]pyrimidin-6(7H)-one]
2 | 88% | 253 nM |  | CC(C)C1(C)C(=O)Nc2nc(-c3cn4ccnc4c(Cc4ccccc4)n3)nc(N)c21 (single isomer, unassigned) [Example 80B, 4-amino-2-(8-benzylimidazo[1,2-a]pyrazin-6-yl)-5-isopropyl-5-methyl-5H-pyrrolo[2,3-d]pyrimidin-6(7H)-one]
3 | 109% | 296 nM |  | CC1(c2ccccc2)C(=O)Nc2nc(-c3cn4cc(C5CC5)nc4c(CCC(F)(F)C(F)(F)F)n3)nc(N)c21 (centres unmarked) [Example 158B, 4-amino-2-(2-cyclopropyl-8-(3,3,4,4,4-pentafluorobutyl)imidazo [1,2-a]pyrazin-6-yl)-5-methyl-5-phenyl-5H-pyrrolo[2,3-d]pyrimidin-6(7H)-one]
4 | 96% | 457 nM |  | Nc1nc(-c2cn3ccnc3c(CCC(F)(F)F)n2)nc2c1C(c1ccc(Br)cc1)(C1CC1)C(=O)N2 (centres unmarked) [Example 200A, 4-amino-5-(4-bromophenyl)-5-cyclopropyl-2-(8-(3,3,3-trifluoropropyl)imidazo[1,2-a]pyrazin-6-yl)-5H-pyrrolo[2,3-d]pyrimidin-6(7H)-one]
5 | 116% | 317 nM |  | CC1(c2ccc(F)cc2)C(=O)Nc2nc(-c3cn4ccnc4c(CCC(F)(F)C(F)(F)F)n3)nc(N3CCCC3)c21 (centres unmarked) [Example 301A, 5-(4-fluorophenyl)-5-methyl-2-(8-(3,3,4,4,4-pentafluorobutyl)imidazo[1,2-a]pyrazin-6-yl)-4-(pyrrolidin-1-yl)-5H-pyrrolo[2,3-d]pyrimidin-6(7H)-one]
6 | 108% | 256 nM |  | Cn1cc(C2(C)C(=O)Nc3nc(-c4cn5ccnc5c(Cc5ccc(F)cc5)n4)nc(N)c32)nn1 (centres unmarked) [Example 65A, 4-amino-2-(8-(4-fluorobenzyl)imidazo[1,2-a]pyrazin-6-yl)-5-methyl-5-(1-methyl-1H-1,2,3-triazol-4-yl)-5H-pyrrolo[2,3-d]pyrimidin-6(7H)-one]
7 | 168% | 923 nM |  | COc1ccc(C2(C)C(=O)Nc3nc(-c4cn5ccnc5c(CCC(F)(F)F)n4)nc(N)c32)cc1 (centres unmarked) [Example 192B, 4-amino-5-(4-methoxyphenyl)-5-methyl-2-(8-(3,3,3-trifluoropropyl)imidazo[1,2-a]pyrazin-6-yl)-5H-pyrrolo[2,3-d]pyrimidin-6(7H)-one]
8 | 115% | 1170 nM |  | CC(C)C1(c2ccc(Cl)cc2)C(=O)Nc2nc(-c3cn4ccnc4c(CCC(F)(F)F)n3)nc(N)c21 (centres unmarked) [Example 203B, 4-amino-5-(4-chlorophenyl)-5-isopropyl-2-(8-(3,3,3-trifluoropropyl)imidazo[1,2-a]pyrazin-6-yl)-5H-pyrrolo[2,3-d]pyrimidin-6(7H)-one]
9 | 79% | 224 nM |  | Cn1cc(C2(C)C(=O)Nc3nc(-c4cn5ccnc5c(Cc5ccc(F)cc5)n4)nc(N)c32)cn1 (centres unmarked) [Example 88B, 4-amino-2-(8-(4-fluorobenzyl)imidazo[1,2-a]pyrazin-6-yl)-5-methyl-5-(1-methyl-1H-pyrazol-4-yl)-5H-pyrrolo[2,3-d]pyrimidin-6(7H)-one]
10 | 116% | 34 nM |  | CC1(c2ccccc2)C(=O)Nc2nc(-c3cn4ccnc4c(Cc4cccc(F)c4)n3)nc(N)c21 (centres unmarked) [Example 101B, 4-amino-2-(8-(3-fluorobenzyl)imidazo[1,2-a]pyrazin-6-yl)-5-methyl-5-phenyl-5H-pyrrolo[2,3-d]pyrimidin-6(7H)-one]
11 | 153% | 197 nM |  | CC1(c2ccc(Cl)cc2)C(=O)Nc2nc(-c3cn4ccnc4cn3)nc(N3CC(C(F)(F)F)C3)c21 (centres unmarked) [Example 282A, 5-(4-chlorophenyl)-2-(imidazo[1,2-a]pyrazin-6-yl)-5-methyl-4-(3-(trifluromethyl)azetidin-1-yl)-5H-pyrrolo[2,3-d]pyrimidin-6(7H)-one]
12 | 126% | 342 nM |  | CC1(C)C(=O)Nc2nc(-c3cn4ccnc4c(Cc4ccc(F)cc4)n3)nc(N)c21 [Example 72, 4-amino-2-(8-(4-fluorobenzyl)imidazo[1,2-a]pyrazin-6-yl)-5,5-dimethyl-5H-pyrrolo[2,3-d]pyrimidin-6(7H)-one]
13 | 93% | 950 nM |  | CC1(C(=O)NC2CC2)C(=O)Nc2nc(-c3cn4cc(C(F)(F)F)nc4c(Cc4ccc(F)c(F)c4)n3)nc(N)c21 (centres unmarked) [Example 52A, 4-amino-N-cyclopropyl-2-(8-(3,4-difluorobenzyl)-2-(trifluoromethyl)imidazo[1,2-a]pyrazin-6-yl)-5-methyl-6-oxo-6,7-dihydro-5H-pyrrolo[2,3-d]pyrimidine-5-carboxamide]
14 |  | 90 nM | 151% | CCC1(C2CC2)C(=O)Nc2nc(-c3cn4ccnc4c(Cc4ccccc4)n3)nc(N)c21 (single isomer, unassigned) [Example 77A, 4-amino-2-(8-benzylimidazo[1,2-a]pyrazin-6-yl)-5-cyclopropyl-5-ethyl-5H-pyrrolo[2,3-d]pyrimidin-6(7H)-one]
15 | 77% | 142 nM |  | COCCNc1nc(-c2cn3ccnc3c(CCC(F)(F)F)n2)nc2c1C(C)(c1ccc(Cl)cc1)C(=O)N2 (centres unmarked) [Example 296A, 5-(4-chlorophenyl)-4-((2-methyoxyethyl)amino)-5-methyl-2-(8-(3,3,3-trifluoropropyl)imidazo[1,2-a]pyrazin-6-yl)-5H-pyrrolo[2,3-d]pyrimidin-6(7H)-one]
16 | 81% | 43 nM |  | CCCCc1nc(-c2nc(N)c3c(n2)NC(=O)C3(C)c2ccc(F)cn2)cn2c(C)cnc12 (centres unmarked) [Example 165B, 4-amino-2-(8-butyl-3-methylimidazo[1,2-a]pyrazin-6-yl)-5-(5-fluoropyridin-2-yl)-5-methyl-5H-pyrrolo[2,3-d]pyrimidin-6(7H)-one]
